Measurements reported in publication PMC12486440, “Design, synthesis, and in silico studies of new benzofuran–pyrazole hybrids as multi-kinase inhibitors with potential antiproliferative activity” (RSC Advances, 2025).

What was measured:
HL-60(TB) = details: single dose 10 μM; leukemia
[1] = system: NCI 60 cancer cell line panel; experiment: NCI 60 full panel summary; details: single dose 10 μM; mean over the NCI 60 panel
K-562 = details: single dose 10 μM; leukemia
MOLT-4 = details: single dose 10 μM; leukemia
RPMI-8226 = details: single dose 10 μM; leukemia
SR = details: single dose 10 μM; leukemia
EKVX = details: single dose 10 μM; non-small lung carcinoma
HOP-62 = details: single dose 10 μM; non-small lung carcinoma
NCI-H522 = details: single dose 10 μM; non-small lung carcinoma
SF-295 = details: single dose 10 μM; CNS cancer
SF-539 = details: single dose 10 μM; CNS cancer
SNB-19 = details: single dose 10 μM; CNS cancer
SNB-75 = details: single dose 10 μM; CNS cancer
MALME-3M = details: single dose 10 μM; melanoma
UACC-257 = details: single dose 10 μM; melanoma
SK-OV-3 = details: single dose 10 μM; ovarian carcinoma
786–0 = details: single dose 10 μM; renal carcinoma
CAKI-1 = details: single dose 10 μM; renal carcinoma
SN12C = details: single dose 10 μM; renal carcinoma
TK-10 = details: single dose 10 μM; renal carcinoma
UO-31 = details: single dose 10 μM; renal carcinoma
MCF7 = details: single dose 10 μM; breast carcinoma
BT-549 = details: single dose 10 μM; breast carcinoma
T-47D = details: single dose 10 μM; breast carcinoma
MDA-MB-468 = details: single dose 10 μM; breast carcinoma
CCRF-CEM = details: single dose 10 μM; leukemia
HOP-92 = details: single dose 10 μM; non-small lung carcinoma
NCI-H226 = details: single dose 10 μM; non-small lung carcinoma
LOX IMVI = details: single dose 10 μM; melanoma
UACC-62 = details: single dose 10 μM; melanoma
OVCAR-5 = details: single dose 10 μM; ovarian carcinoma
ACHN = details: single dose 10 μM; renal carcinoma
PC-3 = details: single dose 10 μM; prostate carcinoma
HCT-15 = details: single dose 10 μM; colon cancer
HT29 = details: single dose 10 μM; colon cancer
U251 = details: single dose 10 μM; CNS cancer
SK-MEL-5 = details: single dose 10 μM; melanoma

Row | Compound | GI% (HL-60(TB)) | Mean GI% [1] | GI% (K-562) | GI% (MOLT-4) | GI% (RPMI-8226) | GI% (SR) | GI% (EKVX) | GI% (HOP-62) | GI% (NCI-H522) | GI% (SF-295) | GI% (SF-539) | GI% (SNB-19) | GI% (MALME-3M) | GI% (SK-OV-3) | GI% (CAKI-1) | GI% (TK-10) | GI% (UO-31) | GI% (MCF7) | GI% (T-47D) | GI% (MDA-MB-468) | further results
1 | 1-(1H-Benzo[d]imidazol-2-yl)-3-(5-(benzofuran-2-yl)-1-phenyl-1H-pyrazol-3-yl)prop-2-en-1-one [2d] | 8.55% | −0.94% | 4.77% | 3.61% | 0.67% | 14.03% | 2.15% | 0.08% | 0.40% | 4.39% | 1.65% | 4.33% | 0.07% | 4.37% | 10.24% | 3.41% | 7.86% | 5.90% | 7.67% | 1.87% | GI% (SNB-75): 20.70%; GI% (UACC-257): 1.66%; GI% (786–0): 0.74%; GI% (SN12C): 3.48%; GI% (BT-549): 15.03%
2 | 3-(5-(Benzofuran-2-yl)-1-phenyl-1H-pyrazol-3-yl)-1-(4-methoxyphenyl)prop-2-en-1-one [2b] | 10.93% | 0.61% | 8.35% | 7.84% | 10.27% | 16.61% | 5.88% | 2.25% | 0.40% | 7.09% | 3.20% | 6.26% | 1.29% | 4.75% | 12.51% | 6.22% | 14.83% | 0.75% | 83.54% | 65.44% | GI% (CCRF-CEM): 19.37%; GI% (HOP-92): 18.73%; GI% (NCI-H226): 0.47%; GI% (LOX IMVI): 4.44%; GI% (UACC-62): 7.77%; GI% (OVCAR-5): 2.97%; GI% (786–0): 1.04%; GI% (ACHN): 0.20%; GI% (PC-3): 4.83%
3 | CC(=O)N1N=C(c2ccccc2)CC1c1cn(-c2ccccc2)nc1-c1cc2ccccc2o1 (stereo not shown) [4a, 1-(5-(3-(Benzofuran-2-yl)-1-phenyl-1H-pyrazol-4-yl)-3-phenyl-4,5-dihydropyrazol-1-yl)ethanone] | 2.27% | 1.66% | 6.90% | 7.01% | 6.01% | 17.00% | 6.06% | 1.18% | 2.75% | 5.69% | 8.41% | 5.00% | 1.02% | 9.60% | 13.36% | 11.62% | 15.50% | 11.19% | 12.41% | 3.32% | GI% (CCRF-CEM): 15.54%; GI% (HOP-92): 16.24%; GI% (NCI-H226): 0.69%; GI% (HCT-15): 2.61%; GI% (HT29): 0.65%; GI% (SNB-75): 1.45%; GI% (U251): 1.60%; GI% (LOX IMVI): 4.25%; GI% (SK-MEL-5): 0.15%; GI% (UACC-62): 8.33%; GI% (OVCAR-5): 3.55%; GI% (786–0): 2.59%; GI% (PC-3): 8.29%; GI% (BT-549): 9.06%
4 | COc1ccc(C2=NN(C(C)=O)C(c3cn(-c4ccccc4)nc3-c3cc4ccccc4o3)C2)cc1 (stereo not shown) [4b, 1-(5-(3-(Benzofuran-2-yl)-1-phenyl-1H-pyrazol-4-yl)-3-(4-methoxyphenyl)-4,5-dihydropyrazol-1-yl)ethanone] | 0.51% | −2.13% | 5.81% | 7.68% | 4.36% | 12.12% | – | 2.33% | 1.65% | – | 2.46% | 2.45% | 0.92% | 4.82% | 13.20% | 7.73% | 17.79% | 9.85% | 2.42% | 2.43% | GI% (CCRF-CEM): 10.80%; GI% (HOP-92): 8.59%; GI% (HCT-15): 0.50%; GI% (LOX IMVI): 2.30%; GI% (UACC-62): 5.56%; GI% (PC-3): 6.35%
